The target of one assay is T1, rat PARG (Rattus norvegicus, UniProt Q9QYM2).
T1 construct: The catalytic domain of rat PARG (residues 385–972) was purified as described previously; made in house
The assay is described as follows: TR-FRET PAR turnover assay (HTS and dose-response). Format: biochemical. The note with it: for IC50: dose-response, rat PARG 12.5 nM, read-out: Estimated IC50; for TR-FRET: 6.7 μM compound. The source says: Importantly, PARG enzymatic function can be required for tumorigenesis. Therefore, we sought to identify a selective PARG inhibitor through our robust PARG enzyme kinetic assay, which quantitatively monitors real-time PAR-mediated PARP1-XRCC1 interactions and disassembly in a multi-well format. A strong TR-FRET signal was generated upon assembly of the Tb^3+-chelated XRCC1 (FRET donor) with PARylated PARP1, which incorporates fluorescein-labeled ADP-ribose moieties into PAR chains (FRET acceptor). The addition of PARG caused a time-dependent loss of the TR-FRET signal by reversing PARylation and disassembling the PARP1-XRCC1 complex (Supplementary Fig. 1)[37].
For a high-throughput screening (HTS) of PARG inhibitors, we developed a high-throughput PARG activity assay using the TR-FRET system (a manuscript describing the details of this assay will be published elsewhere). Briefly, the fluorescein molecule (FITC) was enzymatically incorporated into PARP1 in a reaction containing PARP1C (2 μM), the PARP1 DBD (2 μM), a 24 mer nicked DNA oligo (2 μM), and a mixture of unlabeled NAD^+ (Sigma) and FITC-NAD^+ (Trevigen) substrates (total NAD^+ concentration of 100 μM). After incubation for 1 h at 37 °C, PARylated PARP1 was desalted using a PD-10 desalting column (GE healthcare) in a buffer containing 25 mM Tris-HCl (pH 7.5), 50 mM NaCl, and 0.01% NP-40 and used as the FRET acceptor. The biotin-tagged BRCT1 domain of XRCC1 (BRCT1, 5 nM) was conjugated with an equimolar concentration of Tb^3+-chelated streptavidin (Life Technologies) in TR-FRET assay buffer (FRET donor). […] The reaction was started by the addition of the FRET pair of FITC-labeled PARP1 (42 nM) and Tb^3+-BRCT1 (5 nM). The TR-FRET signal was subsequently monitored for 60 min.
Small molecule inhibitors of PARG were identified by high-throughput screening (HTS) using the TR-FRET PAR turnover assay. Compounds (final concentration of 6.7 μM) from the NCI Diversity Set II library (1990 compounds) were pre dispensed into black polystyrene 384-well plates (Corning) using a Hummingbird liquid handler (Digilab). Then, 10 μl of rat PARG^385–972 (12.5 nM and 25 nM) were subsequently dispensed into plates, using a multi-drop combi nL reagent dispenser (Thermo Scientific) and incubated with compounds for 1 h at 4 °C. The reaction was initiated by the addition of 20 μl of the premixed FRET pair of FITC-labeled PARP1 (42 nM) and Tb^3+-BRCT1 (5 nM), and the TR-FRET signal was monitored every 4 min for 40 min (11 data points). Hits were selected by visually comparing the rate of the TR-FRET signal decrease in each well to that of negative control reactions containing DMSO (Fig. 1b and see Text for details). The HTS was performed at the High-Throughput Screening Core (HTSC) at Washington University School of Medicine.

In the next assay the target is T2, Human PARG (Homo sapiens, UniProt Q86W56).
T2 construct: The human PARG (hPARG) catalytic domain (residues 389–976) was cloned in pET28a (Novagen); His-tag (N); made in house; host or cells: E. coli Rosetta
Put plainly: Gel-based PARG activity assay. Particulars: for inhibition at 0.0488281 µM: [L] 0.0488281 uM; for inhibition at 0.0976562 µM: [L] 0.0976562 uM; for inhibition at 0.195312 µM: [L] 0.195312 uM; for inhibition at 0.390625 µM: [L] 0.390625 uM; for inhibition at 0.78125 µM: [L] 0.78125 uM; for inhibition at 1.5625 µM: [L] 1.5625 uM; for inhibition at 3.125 µM: [L] 3.125 uM; for inhibition at 6.25 µM: [L] 6.25 uM; for inhibition at 12.5 µM: [L] 12.5 uM; for inhibition at 25 µM: [L] 25 uM; for inhibition at 50 µM: [L] 50 uM; for IC50: hPARG 1 nM, PARylated PARP1C 500 nM, 30 min. Format: biochemical. The protocol:
PARP1C (2 μM) is enzymatically auto-modified in a reaction containing the PARP1 DBD (2 μM), a 24 mer nicked DNA oligo (2 μM), and NAD^+ (300 μM) for 1 h at 37 °C, as described previously. Human PARG^389–976 (1 nM) was pre-incubated with compounds for 1 h at room temperature. The reaction was initiated by the addition of PARylated PARP1 (final concentration of 500 nM) and quenched after 30 min incubation at room temperature by adding SDS-PAGE sample buffer. The gel was visualized by sypro-ruby staining[18] and the retained PARylated PARP1C species were quantified using ImageJ[59]. PARylated PARP1C that migrates slower than unmodified PARP1C was quantified. […] The IC50 values were determined by fitting the dose-response data for each compound to a four-parameter logistic equation using SigmaPlot (Systat Software Inc.).
To test the specificity of JA2131, human PARG^389–976 (1 nM) was pre-incubated with JA2131 (5, 10, and 20 μM) in the presence and absence of 0.1% Triton-X 100 or 0.1 mg/ml BSA for 1 h at room temperature. The reaction was initiated, quenched, visualized, and quantified as described above. […]
PARG activity assay. […]
PARP1 (500 nM). The reaction was quenched after a 30 -minu te in cu ba tion a t roo m te mpe ra tu re by adding SDS-PA GE sa mp le bu f fe r. PARylated PARP1C runs as a smear on SDS -PAGE that is reduced to a single band by PARG treatment. […]
2). (b) Qu an t if ica t ion o f the dose-response PARG inhibition by JA2 -3 using the gel-based PARG activity assay. hPARG (1 nM) was preincubated with increasing concentrations (0.032 – 1 µM) of JA2-3 f o r 1 hour at room temperature before PARylated PARP1C (500 nM) was added. The reaction was quenched after a 30-minu te incubation at room temperature. PARylated PARP1C migrates slower than unmodified PARP1C and was quantified using ImageJ. […] The rate of the PARG-dependent signal loss in the TR-FRET PAR turnover assay is not equivalent to the steady-state rate of PAR turnover, because the TR-FRET assay can’t detect signal loss until the length of PAR chains become shorter than 7 ADP-ribose units. Therefore, we used the gel-based PARG activity assay to accurately determine the IC50 values throughout the manuscript .

A further assay concerns A172 glioblastoma cells. The assay is described as follows: Sulforhodamine B (SRB) cytotoxicity assay. Particulars: 72 h. The protocol: Normalized % viabilities are plotted against log concentration. Error bars show the percent coefficient of variation. […] Mann-Whitney test was used to generate the p-value. The DNA spread assay is the representation of two independently repeated experiments. Source Data are provided as a Source Data file.
Cells were plated in 96-well plates, treated as designated in reduced 5% FBS and fixed with trichloroacetic acid after 72 h, as previously described by[43]. […] Colorimetric or fluorescence analysis was performed in a FlexStation 3, using SoftMax Pro 7.0, Molecular Devices. Normalized graphs were generated with Prism 8 software, non-linear 4-parameter data fitting was performed for IC50 calculation.

The IC50 is the concentration at which inhibition is half-maximal. As usually defined, the inhibition is the change of the read-out against control, counted positive when it falls.

T1 sequence (Q9QYM2 385-972): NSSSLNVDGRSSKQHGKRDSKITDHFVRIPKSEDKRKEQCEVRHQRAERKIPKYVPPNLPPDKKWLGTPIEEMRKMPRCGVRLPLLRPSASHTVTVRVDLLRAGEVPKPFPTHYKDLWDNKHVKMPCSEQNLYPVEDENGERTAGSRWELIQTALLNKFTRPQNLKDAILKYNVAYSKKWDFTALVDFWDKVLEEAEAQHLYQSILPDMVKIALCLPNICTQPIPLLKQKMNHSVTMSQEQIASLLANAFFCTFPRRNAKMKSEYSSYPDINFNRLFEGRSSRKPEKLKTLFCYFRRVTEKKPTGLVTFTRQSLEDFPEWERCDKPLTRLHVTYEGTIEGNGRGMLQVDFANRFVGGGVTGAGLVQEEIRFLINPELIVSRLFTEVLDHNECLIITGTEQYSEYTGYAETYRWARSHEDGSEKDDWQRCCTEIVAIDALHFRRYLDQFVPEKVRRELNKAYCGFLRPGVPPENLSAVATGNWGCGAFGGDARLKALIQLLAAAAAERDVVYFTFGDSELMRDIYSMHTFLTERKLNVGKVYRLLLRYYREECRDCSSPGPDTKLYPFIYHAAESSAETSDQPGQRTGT
T2 sequence (Q86W56 389-976): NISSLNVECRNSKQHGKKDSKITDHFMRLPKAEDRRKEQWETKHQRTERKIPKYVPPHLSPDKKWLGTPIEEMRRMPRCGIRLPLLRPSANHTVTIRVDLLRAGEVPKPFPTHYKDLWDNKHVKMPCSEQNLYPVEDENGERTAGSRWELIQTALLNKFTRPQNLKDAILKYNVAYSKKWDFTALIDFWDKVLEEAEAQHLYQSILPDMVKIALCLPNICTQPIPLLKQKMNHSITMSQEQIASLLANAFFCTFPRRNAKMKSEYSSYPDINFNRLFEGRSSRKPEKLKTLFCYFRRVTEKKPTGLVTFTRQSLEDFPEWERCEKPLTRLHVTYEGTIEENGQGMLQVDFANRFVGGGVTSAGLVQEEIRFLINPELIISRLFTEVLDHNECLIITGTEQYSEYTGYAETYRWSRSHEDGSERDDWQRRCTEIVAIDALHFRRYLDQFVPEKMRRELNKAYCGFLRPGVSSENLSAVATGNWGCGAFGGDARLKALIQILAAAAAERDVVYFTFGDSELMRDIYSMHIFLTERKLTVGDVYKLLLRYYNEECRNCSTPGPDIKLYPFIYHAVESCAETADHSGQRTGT

As for `CCCOCN1C(=O)C=CC1=O` [JA1-1], at rat PARG, the IC50 was 1000 to 2000 nM.
In the case of `Cn1c(=O)c2[nH]c(SCCN3CCOCC3)nc2n(C)c1=S` [JA2-5], on Human PARG, the inhibition at 0.0488281 µM was 6.3%, the inhibition at 0.0976562 µM came to 19.6%, the inhibition at 0.195312 µM was found to be 28.3% and the inhibition at 0.390625 µM worked out at 27.3%. Besides, on Human PARG, the inhibition at 0.78125 µM came to 35.2%, the inhibition at 1.5625 µM was found to be 71%, the inhibition at 3.125 µM turned out to be 81.9% and the inhibition at 6.25 µM was found to be 87.9%. Further, at Human PARG, the inhibition at 12.5 µM turned out to be 89.1%, the inhibition at 25 µM amounted to 99.8%, the inhibition at 50 µM is 104% and the IC50 came out at 1000 nM.
Regarding `Cn1c(=S)c2nc(SCCN3CCCC3)[nH]c2n(C)c1=O` [JA2-4], on Human PARG, the inhibition at 0.0488281 µM came to 2.01%, the inhibition at 0.0976562 µM was 4.3%, the inhibition at 0.195312 µM came out at 25.2% and the inhibition at 0.390625 µM is 34.9%. For the same compound, at Human PARG, the inhibition at 0.78125 µM is 48.4%, the inhibition at 1.5625 µM is 67%, the inhibition at 3.125 µM amounted to 70.1% and the inhibition at 6.25 µM was 78.4%. On Human PARG, the inhibition at 12.5 µM came out at 87.5%, the inhibition at 25 µM came out at 93.6%, the inhibition at 50 µM is 100% and the half-inhibitory concentration (IC50) turned out to be 900 nM.
`O=c1[nH]c2[nH]c(=S)[nH]c(=S)c2[nH]1` [JA2-3]: the TR-FRET on rat PARG (12.5 nM PARG, 0 min) was 1.1077; at rat PARG (12.5 nM PARG, 4 min), 1.1706; on rat PARG (12.5 nM PARG, 8 min), 1.1753; on rat PARG (12.5 nM PARG, 12 min) it was 1.0984; at rat PARG (12.5 nM PARG, 16 min), 1.1414; on rat PARG (12.5 nM PARG, 20 min) it was 1.0328. Further, the TR-FRET on rat PARG (12.5 nM PARG, 24 min) was determined as 0.9368; on rat PARG (12.5 nM PARG, 28 min), 0.9375; on rat PARG (12.5 nM PARG, 32 min), 0.9636; on rat PARG (12.5 nM PARG, 36 min), 0.9240; on rat PARG (12.5 nM PARG, 40 min), 0.9660; at rat PARG (25 nM PARG, 0 min), 1.1716. Also, the TR-FRET at rat PARG (25 nM PARG, 4 min) was determined as 1.2418; at rat PARG (25 nM PARG, 8 min), 1.1876; at rat PARG (25 nM PARG, 12 min) it was 1.1061; on rat PARG (25 nM PARG, 16 min), 1.0537; at rat PARG (25 nM PARG, 20 min) it was 1.0170; at rat PARG (25 nM PARG, 24 min), 0.9403. The TR-FRET on rat PARG (25 nM PARG, 28 min) was determined as 0.9903; on rat PARG (25 nM PARG, 32 min), 1.0366; on rat PARG (25 nM PARG, 36 min), 0.9358; on rat PARG (25 nM PARG, 40 min), 1.0455. Besides, on Human PARG (0.5 h, [L] 1.00E-04 uM), the inhibition at 0.0001 µM was determined as 0%. Moreover, the inhibition at 0.03125 µM against Human PARG ([L] 0.03125 uM) was determined as 17%. In addition, the inhibition at 0.0625 µM on Human PARG ([L] 0.0625 uM) came to 35.9%. The inhibition at 0.125 µM against Human PARG ([L] 0.125 uM) amounted to 56.7%. The inhibition at 0.25 µM against Human PARG ([L] 0.25 uM) is 74.4%. In addition, the inhibition at 0.5 µM against Human PARG ([L] 0.5 uM) is 88%. Also, the inhibition at 1 µM against Human PARG ([L] 1 uM) came to 103%. On Human PARG, it took 100 nM to reach half-maximal inhibition (IC50).
On to `Cn1c(=O)c2[nH]c(SCCN3CCOCC3)nc2n(C)c1=O` [JA2120], for which, on Human PARG, the “potency difference JA2131 (6´-thiocarbonyl) vs JA2120 (6´-carbonyl)” value is given as “more than 50 fold”, the inhibition at 0.0488281 µM is 6.05%, the inhibition at 0.0976562 µM was 5.87% and the inhibition at 0.195312 µM turned out to be 7.21%. Further, at Human PARG, the inhibition at 0.390625 µM was determined as 10.4%, the inhibition at 0.78125 µM amounted to 16.2%, the inhibition at 1.5625 µM is 24.6% and the inhibition at 3.125 µM was found to be 25.7%. Also, at Human PARG, the inhibition at 6.25 µM worked out at 24.7%, the inhibition at 12.5 µM was determined as 33.9%, the inhibition at 25 µM was determined as 45.5% and the inhibition at 50 µM was found to be 67%. The concentration for half-maximal inhibition (IC50) against Human PARG stood at 25700 nM. In addition, the inhibition at 100 µM on Human PARG ([L] 100 uM) was 88.3%.
In the assay with A172 glioblastoma cells, `NC(=O)NO` [Hydroxyurea] yielded an IC50 of 381000 ± 117000 nM.
With `O=C1C=CC(=Nc2cccc3c(N=C4C=CC(=O)O4)cccc23)O1` [JA1-3], the 50% inhibitory concentration (IC50) at rat PARG was approximately 400 nM.

The values are drawn from publication PMC6906431, “Selective small molecule PARG inhibitor causes replication fork stalling and cancer cell death” (Nature Communications, 2019).
